“Also recorded” adds a separate entry of the source. Counter-ions that a name gives are not always drawn. Like-named read-outs stand apart in the source and are kept apart here. Where a SMILES comes first, the peptide text is derived from it. Bridges are numbered along the chain shown (N, C = ends). [ ]: non-standard residue; d: D form. The star is where a group is joined. Octanoyl(6-Me) = CCC(C)CCCCC(=O)*; Dab = NCC[CH](N)C(=O)O
Experiments:
[1] = target: Mtb DNA topoisomerase I (Mycobacterium tuberculosis, UniProt P9WG49); format: biochemical; details: for screening result in words (Mtb topo I HTS): interpretation of Table 4
Chain of Mtb DNA topoisomerase I (P9WG49 whole entry): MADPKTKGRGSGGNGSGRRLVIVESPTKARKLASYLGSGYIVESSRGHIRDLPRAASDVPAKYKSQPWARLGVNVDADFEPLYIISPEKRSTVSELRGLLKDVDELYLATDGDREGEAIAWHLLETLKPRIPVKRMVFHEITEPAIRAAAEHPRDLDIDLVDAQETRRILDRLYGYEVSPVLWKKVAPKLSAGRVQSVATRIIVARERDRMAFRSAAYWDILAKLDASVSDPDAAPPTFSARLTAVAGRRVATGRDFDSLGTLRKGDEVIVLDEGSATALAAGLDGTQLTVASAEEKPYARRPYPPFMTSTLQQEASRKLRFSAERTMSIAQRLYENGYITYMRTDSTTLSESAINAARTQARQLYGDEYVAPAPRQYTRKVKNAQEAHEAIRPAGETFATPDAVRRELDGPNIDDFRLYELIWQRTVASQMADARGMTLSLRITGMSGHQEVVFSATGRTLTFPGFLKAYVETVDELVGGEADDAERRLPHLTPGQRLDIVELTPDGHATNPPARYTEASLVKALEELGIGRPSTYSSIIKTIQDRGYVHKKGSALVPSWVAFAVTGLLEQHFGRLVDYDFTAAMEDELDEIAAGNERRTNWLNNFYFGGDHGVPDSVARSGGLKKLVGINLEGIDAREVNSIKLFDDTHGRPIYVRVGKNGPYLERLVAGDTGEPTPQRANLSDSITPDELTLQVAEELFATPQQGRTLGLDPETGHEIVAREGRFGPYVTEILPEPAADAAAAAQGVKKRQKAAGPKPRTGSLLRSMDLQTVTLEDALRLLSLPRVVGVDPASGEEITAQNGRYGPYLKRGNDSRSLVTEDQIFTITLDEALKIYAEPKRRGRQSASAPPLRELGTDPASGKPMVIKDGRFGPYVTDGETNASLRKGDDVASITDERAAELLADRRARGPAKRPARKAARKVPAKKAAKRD

[2] = target: E. coli DNA gyrase (Escherichia coli, UniProt P0AES4+P0AES6); format: biochemical; details: for result in words, pathogen box screen for E. coli DNA gyrase: 400 compounds, several rounds of screening; for hit call, gyrase HTS (FIG. 7): 20 μM, triplicate, Z′ 0.64, S/B 4.3
Chain of E. coli DNA gyrase (P0AES4 whole entry, one chain of several): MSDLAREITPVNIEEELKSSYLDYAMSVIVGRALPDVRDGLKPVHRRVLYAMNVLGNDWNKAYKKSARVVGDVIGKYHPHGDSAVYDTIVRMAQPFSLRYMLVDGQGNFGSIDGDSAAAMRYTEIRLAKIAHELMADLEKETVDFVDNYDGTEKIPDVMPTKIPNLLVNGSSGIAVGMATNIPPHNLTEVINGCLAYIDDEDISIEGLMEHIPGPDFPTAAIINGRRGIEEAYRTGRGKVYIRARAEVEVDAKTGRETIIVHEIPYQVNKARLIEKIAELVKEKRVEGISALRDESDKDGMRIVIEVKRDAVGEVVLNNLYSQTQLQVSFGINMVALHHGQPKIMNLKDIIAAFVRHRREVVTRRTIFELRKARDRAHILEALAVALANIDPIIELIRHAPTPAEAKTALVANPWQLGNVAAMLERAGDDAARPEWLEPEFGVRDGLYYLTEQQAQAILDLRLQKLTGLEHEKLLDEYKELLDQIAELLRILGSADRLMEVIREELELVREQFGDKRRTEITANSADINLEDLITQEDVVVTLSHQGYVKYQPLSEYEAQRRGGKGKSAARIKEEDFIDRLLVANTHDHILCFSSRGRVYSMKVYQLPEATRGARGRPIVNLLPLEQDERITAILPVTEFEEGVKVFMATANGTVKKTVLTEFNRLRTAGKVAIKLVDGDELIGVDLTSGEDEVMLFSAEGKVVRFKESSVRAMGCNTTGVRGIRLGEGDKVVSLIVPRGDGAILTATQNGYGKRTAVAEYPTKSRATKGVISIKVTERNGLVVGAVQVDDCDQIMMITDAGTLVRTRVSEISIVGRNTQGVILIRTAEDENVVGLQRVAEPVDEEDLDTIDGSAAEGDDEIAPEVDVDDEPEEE

[3] = target: E. coli DNA topoisomerase I (Escherichia coli, UniProt P06612); format: biochemical; details: for screening result in words (E. coli topo I HTS): interpretation of Table 5 / FIG. 11
Chain of E. coli DNA topoisomerase I (P06612 whole entry): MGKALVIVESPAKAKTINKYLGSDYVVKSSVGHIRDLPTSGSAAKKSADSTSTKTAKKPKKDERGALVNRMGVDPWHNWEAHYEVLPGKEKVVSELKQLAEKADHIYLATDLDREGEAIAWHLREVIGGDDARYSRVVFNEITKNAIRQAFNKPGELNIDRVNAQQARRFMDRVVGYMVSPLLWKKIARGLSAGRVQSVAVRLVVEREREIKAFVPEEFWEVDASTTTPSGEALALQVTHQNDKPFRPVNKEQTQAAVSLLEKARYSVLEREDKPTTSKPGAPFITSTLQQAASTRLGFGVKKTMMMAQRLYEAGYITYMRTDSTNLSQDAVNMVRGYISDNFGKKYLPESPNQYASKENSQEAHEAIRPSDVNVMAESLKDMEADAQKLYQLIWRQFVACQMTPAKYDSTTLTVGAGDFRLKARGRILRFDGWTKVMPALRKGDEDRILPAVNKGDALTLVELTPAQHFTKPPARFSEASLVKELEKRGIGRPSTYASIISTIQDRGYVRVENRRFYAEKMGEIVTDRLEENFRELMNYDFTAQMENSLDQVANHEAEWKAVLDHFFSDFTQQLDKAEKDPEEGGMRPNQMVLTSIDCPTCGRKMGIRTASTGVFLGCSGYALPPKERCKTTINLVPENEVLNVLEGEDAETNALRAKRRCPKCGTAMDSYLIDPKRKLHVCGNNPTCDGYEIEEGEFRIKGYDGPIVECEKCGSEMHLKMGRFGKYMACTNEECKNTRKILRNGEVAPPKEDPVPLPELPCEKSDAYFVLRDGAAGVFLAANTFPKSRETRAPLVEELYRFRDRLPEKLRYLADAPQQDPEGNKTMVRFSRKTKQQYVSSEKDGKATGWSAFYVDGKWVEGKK

[4] = target: variola virus DNA topoisomerase 1 (vTopI) (Variola virus, UniProt P32989); format: biochemical; details: for screening result in words (Variola topo I HTS): interpretation of Table 6
Chain of variola virus DNA topoisomerase 1 (vTopI) (P32989 whole entry, looked up): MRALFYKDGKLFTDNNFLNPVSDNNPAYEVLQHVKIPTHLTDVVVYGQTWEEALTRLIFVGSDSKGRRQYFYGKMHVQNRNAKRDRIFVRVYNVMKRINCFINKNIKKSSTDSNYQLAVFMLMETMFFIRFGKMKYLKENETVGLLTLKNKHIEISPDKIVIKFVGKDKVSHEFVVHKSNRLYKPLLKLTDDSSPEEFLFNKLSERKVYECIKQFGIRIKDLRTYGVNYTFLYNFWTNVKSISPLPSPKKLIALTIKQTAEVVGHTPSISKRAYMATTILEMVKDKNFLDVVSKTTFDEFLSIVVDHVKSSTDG

[5] = target: MtbTopI (Mycobacterium tuberculosis, UniProt P9WG49); test: MtbTopI inhibition test of FIG. 14; format: biochemical
Chain of MtbTopI (P9WG49 whole entry): as the sequence (P9WG49 whole entry) above

[6] = target: T1, human DNA topoisomerase I (HuTopI) (Homo sapiens, UniProt P11387); test: Human TopI-catalyzed DNA relaxation of sc pAB1_FL905 (fluorescence, FIG. 14); format: biochemical; details: 25 nM huTopI, sc pAB1_FL905, λem=521 nm, λex=482 nm; read-out: IC50 for inhibition of HuTopI activities
T1 sequence (P11387 1-765): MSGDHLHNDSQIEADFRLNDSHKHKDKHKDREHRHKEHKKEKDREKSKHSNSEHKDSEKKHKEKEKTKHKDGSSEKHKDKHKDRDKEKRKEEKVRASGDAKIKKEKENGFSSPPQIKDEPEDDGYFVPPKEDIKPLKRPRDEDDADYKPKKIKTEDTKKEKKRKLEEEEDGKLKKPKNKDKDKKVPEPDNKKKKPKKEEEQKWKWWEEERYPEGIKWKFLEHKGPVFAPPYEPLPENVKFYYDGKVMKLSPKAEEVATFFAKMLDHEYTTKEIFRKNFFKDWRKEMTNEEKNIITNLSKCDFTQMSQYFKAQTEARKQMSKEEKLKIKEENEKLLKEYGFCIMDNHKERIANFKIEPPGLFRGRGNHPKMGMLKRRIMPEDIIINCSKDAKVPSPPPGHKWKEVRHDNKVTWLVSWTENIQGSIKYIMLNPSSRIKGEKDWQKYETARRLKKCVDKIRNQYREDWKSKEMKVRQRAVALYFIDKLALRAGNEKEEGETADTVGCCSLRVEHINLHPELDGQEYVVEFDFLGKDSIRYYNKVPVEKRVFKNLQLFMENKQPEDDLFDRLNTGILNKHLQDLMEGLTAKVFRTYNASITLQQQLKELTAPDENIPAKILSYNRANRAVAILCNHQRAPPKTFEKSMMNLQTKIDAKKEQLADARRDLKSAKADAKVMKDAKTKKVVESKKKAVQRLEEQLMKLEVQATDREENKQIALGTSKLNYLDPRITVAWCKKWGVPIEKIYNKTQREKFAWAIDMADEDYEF

[7] = tested on: supercoiled plasmid pAB1; test: T5 exonuclease-based HTS assay for DNA intercalators (sc pAB1, no topoisomerase)

Molecule: O=C(O)c1cn(C2CC2)c2cc(N3CCNCC3)c(F)cc2c1=O [Ciprofloxacin]
- fluorescence, HTS screening of 50-compound library for Mtb DNA topoisomerase 1 inhibitors [1]: 1493
- fluorescence, HTS screening of 50-compound library for E. coli DNA gyrase inhibitors [2]: 1803
- screening result in words (Table 2, gyrase HTS) [2]: DNA intercalators
- fluorescence, HTS screening of 50-compound library for E. coli DNA topoisomerase 1 inhibitors [3]: 1191

Molecule: CCN1CCN(c2cc3c(cc2F)c(=O)c(C(=O)O)cn3C2CC2)CC1 [Enrofloxacin]
- screening result in words (Table 2, gyrase HTS) ([2]; interpretation of Table 2): DNA intercalators
- screening result in words (Variola topo I HTS) [4]: can inhibit Variola topo I

Molecule: NCC(=O)O [Glycine]
- fluorescence, HTS screening of 50-compound library for Mtb DNA topoisomerase 1 inhibitors [1]: 1321
- fluorescence, HTS screening of 50-compound library for E. coli DNA gyrase inhibitors [2]: 644
- fluorescence, HTS screening of 50-compound library for E. coli DNA topoisomerase 1 inhibitors [3]: 1589

Molecule: NCCCC[C@H](N)C(=O)O [L-lysine]
- fluorescence, HTS screening of 50-compound library (Table 6; vTopI) [4]: 1028

Molecule: C[C@H]1COc2c(N3CCN(C)CC3)c(F)cc3c(=O)c(C(=O)O)cn1c23 [Levofloxacin]
- screening result in words (Table 2, gyrase HTS) ([2]; interpretation of Table 2): DNA intercalators
- result in words, pathogen box screen for E. coli DNA gyrase [2]: inhibit E. coli DNA gyrase activities

Molecule: CCn1cc(C(=O)O)c(=O)c2cc(F)c(N3CCNC(C)C3)c(F)c21 (centres unmarked) [Lomefloxacin]
- screening result in words (Table 2, gyrase HTS) ([2]; interpretation of Table 2): DNA intercalators

Molecule: NC(N)=Nc1ccc(-c2ccc(-c3ccc(N=C(N)N)cc3Cl)o2)c(Cl)c1 [MMV688179]
- result in words, pathogen box screen for E. coli DNA gyrase [2]: inhibit E. coli DNA gyrase activities

Molecule: CCCCCCCCOC(=O)c1cc(O)c(O)c(O)c1 [NSC97419]
- screening result in words (Mtb topo I HTS) [1]: new Mtb DNA topI inhibitors; also recorded: can inhibit Mtb topo I
- screening result in words (Variola topo I HTS) [4]: can inhibit Variola topo I
- screening result in words (E. coli topo I HTS) [3]: can inhibit E. coli topo I

Molecule: O=C1C=C(NCCc2cc(Br)c(O)c(Br)c2)C(=O)c2ncccc21 [NSC668394]
- screening result in words (Mtb topo I HTS) [1]: new Mtb DNA topI inhibitors; also recorded: can inhibit Mtb topo I
- inhibition of MtbTopI in words (FIG. 14B and D) [5]: did not inhibit
- screening result in words (E. coli topo I HTS) [3]: new E. coli DNA Topo I inhibitor; also recorded: can inhibit E. coli topo I
- IC50 [6]: 5 µM

Molecule: CCn1cc(C(=O)O)c(=O)c2cc(F)c(N3CCNCC3)cc21 [Norfloxacin]
- screening result in words (Table 2, gyrase HTS) ([2]; interpretation of Table 2): DNA intercalators

Molecule: CCC(C)CCCCC(=O)NC(CCN)C(=O)NC(C(=O)NC(CCN)C(=O)NC1CCNC(=O)C(C(C)O)NC(=O)C(CCN)NC(=O)C(CCN)NC(=O)C(CC(C)C)NC(=O)C(Cc2ccccc2)NC(=O)C(CCN)NC1=O)C(C)O (centres unmarked) [Polymyxin B sulfate salt] ({Octanoyl(6-Me)}-[Dab]T[Dab][Dab][Dab]FL[Dab][Dab]T; lactam 4-C; configuration not given here)
- fluorescence, HTS screening of 50-compound library (Table 6; vTopI) [4]: 1744

Molecule: CN[C@H](CC(C)C)C(=O)N[C@H]1C(=O)N[C@@H](CC(N)=O)C(=O)N[C@H]2C(=O)N[C@H]3C(=O)N[C@H](C(=O)N[C@H](C(=O)O)c4cc(O)cc(O)c4-c4cc3ccc4O)[C@H](O)c3ccc(c(Cl)c3)Oc3cc2cc(c3O[C@@H]2O[C@H](CO)[C@@H](O)[C@H](O)[C@H]2OC2C[C@](C)(N)[C@H](O)[C@H](C)O2)Oc2ccc(cc2Cl)[C@H]1O (some centres unmarked) [Vancomycin]
- fluorescence, HTS screening of 50-compound library (Table 6; vTopI) [4]: 1398

Molecule: Cc1ncc(C[n+]2csc(CCO)c2C)c(N)n1 [Vitamine B1]
- fluorescence, HTS screening of 50-compound library for Mtb DNA topoisomerase 1 inhibitors [1]: 1224
- fluorescence, HTS screening of 50-compound library for E. coli DNA gyrase inhibitors [2]: 467
- fluorescence, HTS screening of 50-compound library for E. coli DNA topoisomerase 1 inhibitors [3]: 1441

Molecule: CC[C@@]1(O)C(=O)OCc2c1cc1n(c2=O)Cc2cc3ccccc3nc2-1 [camptothecin]
- fluorescence, HTS screening of 50-compound library (Table 6; vTopI) [4]: 1712

Molecule: CS[C@H]1SC[C@H]2C(=O)N(C)[C@@H](C(C)C)C(=O)OC[C@@H](NC(=O)c3cnc4ccccc4n3)C(=O)N[C@@H](C)C(=O)N(C)[C@@H]1C(=O)N(C)[C@@H](C(C)C)C(=O)OC[C@@H](NC(=O)c1cnc3ccccc3n1)C(=O)N[C@@H](C)C(=O)N2C [echinomycin]
- hit call, gyrase HTS (FIG. 7) [2]: hits
- screening result in words (Table 2, gyrase HTS) ([2]; interpretation of Table 2): DNA intercalators
- fluorescence, HTS screening of 50-compound library (Table 6; vTopI) [4]: 1238

Molecule: CCOc1ccc2nc3cc(N)ccc3c(N)c2c1 [ethacridine]
- hit call, gyrase HTS (FIG. 7) [2]: hits
- screening result in words (Table 2, gyrase HTS) ([2]; interpretation of Table 2): DNA intercalators

Molecule: NC[C@H]1O[C@H](O[C@H]2[C@H](O)[C@@H](O[C@H]3O[C@H](CO)[C@@H](O)[C@H](N)[C@H]3O)[C@H](N)C[C@@H]2N)[C@H](O)[C@@H](O)[C@@H]1O [kanamycin]
- fluorescence, HTS screening of 50-compound library for Mtb DNA topoisomerase 1 inhibitors [1]: 1466
- fluorescence, HTS screening of 50-compound library for E. coli DNA gyrase inhibitors [2]: 510
- fluorescence, HTS screening of 50-compound library for E. coli DNA topoisomerase 1 inhibitors [3]: 1719

Molecule: c1ccncc1 [pyridine]
- fluorescence, HTS screening of 50-compound library for Mtb DNA topoisomerase 1 inhibitors [1]: 1380
- fluorescence, HTS screening of 50-compound library for E. coli DNA gyrase inhibitors [2]: 568
- fluorescence, HTS screening of 50-compound library for DNA intercalators [7]: 218
- fluorescence, HTS screening of 50-compound library for E. coli DNA topoisomerase 1 inhibitors [3]: 1339

Molecule: Nc1ccc(S(N)(=O)=O)cc1 [sulfanilamide]
- fluorescence, HTS screening of 50-compound library for Mtb DNA topoisomerase 1 inhibitors [1]: 1523
- fluorescence, HTS screening of 50-compound library for E. coli DNA gyrase inhibitors [2]: 558
- fluorescence, HTS screening of 50-compound library for E. coli DNA topoisomerase 1 inhibitors [3]: 1426

Molecule: Cc1ccc(C(=O)Nc2ccc(S(=O)(=O)O)c3cc(S(=O)(=O)O)cc(S(=O)(=O)O)c23)cc1NC(=O)c1cccc(NC(=O)Nc2cccc(C(=O)Nc3cc(C(=O)Nc4ccc(S(=O)(=O)O)c5cc(S(=O)(=O)O)cc(S(=O)(=O)O)c45)ccc3C)c2)c1 [suramin]
- screening result in words (Mtb topo I HTS) [1]: can inhibit Mtb topo I
- hit call, gyrase HTS (FIG. 7) [2]: hits
- screening result in words (Table 2, gyrase HTS) ([2]; interpretation of Table 2): DNA intercalators
- screening result in words (Variola topo I HTS) [4]: can inhibit Variola topo I
- screening result in words (E. coli topo I HTS) [3]: can inhibit E. coli topo I

Molecule: CC[C@@]1(O)C(=O)OCc2c1cc1n(c2=O)Cc2cc3c(CN(C)C)c(O)ccc3nc2-1 [topotecan]
- screening result in words (Mtb topo I HTS) [1]: new Mtb DNA topI inhibitors; also recorded: can inhibit Mtb topo I

Molecule: citrinin
- fluorescence, HTS screening of 50-compound library (Table 6; vTopI) [4]: 1311

Reference: patent publication US11732286B2, “T5 exonuclease-based method to identify DNA topoisomerase inhibitors” (The Florida International University Board of Trustees, priority 2020, dated 2023)
